Data published in PMC9673926, “Nucleotide binding as an allosteric regulatory mechanism for Akkermansia muciniphila β-N-acetylhexosaminidase Am2136” (Gut Microbes, 2022).

Biological target: T1, Am2136 Y327F+Y331F (Akkermansia muciniphila, UniProt B2UPR7, Y327F/Y331F)
T1 sequence (B2UPR7 20-756 Y327F/Y331F): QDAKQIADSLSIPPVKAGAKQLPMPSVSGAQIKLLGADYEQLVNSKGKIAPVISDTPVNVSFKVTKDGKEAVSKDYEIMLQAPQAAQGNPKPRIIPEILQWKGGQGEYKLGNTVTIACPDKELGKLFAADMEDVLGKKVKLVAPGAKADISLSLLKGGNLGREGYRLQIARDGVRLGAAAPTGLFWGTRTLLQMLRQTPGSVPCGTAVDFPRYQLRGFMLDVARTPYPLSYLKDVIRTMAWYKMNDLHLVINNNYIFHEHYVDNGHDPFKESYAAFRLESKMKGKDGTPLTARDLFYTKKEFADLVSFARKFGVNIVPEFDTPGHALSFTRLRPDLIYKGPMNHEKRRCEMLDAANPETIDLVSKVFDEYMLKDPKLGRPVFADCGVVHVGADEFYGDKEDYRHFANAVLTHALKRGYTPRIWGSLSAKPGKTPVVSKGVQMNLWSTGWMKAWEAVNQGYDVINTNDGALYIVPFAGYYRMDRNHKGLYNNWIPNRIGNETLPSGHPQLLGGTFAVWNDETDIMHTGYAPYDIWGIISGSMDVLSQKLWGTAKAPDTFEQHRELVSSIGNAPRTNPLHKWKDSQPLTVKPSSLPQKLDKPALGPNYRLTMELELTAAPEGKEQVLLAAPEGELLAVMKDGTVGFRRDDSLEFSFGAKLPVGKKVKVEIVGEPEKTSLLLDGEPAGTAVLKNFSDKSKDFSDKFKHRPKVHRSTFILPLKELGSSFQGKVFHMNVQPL
Assay: GDP regulated enzyme activity assay, mutant
Settings: 1 mM GDP, substrate pNP-β-GlcNAc

Nc1nc2c(ncn2[C@@H]2O[C@H](COP(=O)(O)OP(=O)(O)O)[C@@H](O)[C@H]2O)c(=O)[nH]1 [GDP]
Vmax: 473 ± 6 µmol/min
